Laboratory results reported in patent US20080188481A1 (priority 2002, published 2008).

Tested on: HIV-1 single-round infectious reporter virus
Assay: Single-round infectious HIV-1 luciferase reporter virus infection of HeLa CD4 cells (antiviral EC50)
Assay type: cell-based
Conditions: Human immunodeficiency virus 1, HeLa, 72 h, read-out: EC50 Group from Table 1
Procedure: • Virus production—Human embryonic Kidney cell line, 293T, was propagated in Dulbecco's Modified Eagle Medium (Invitrogen, Carlsbad, Calif.) containing 10% fetal Bovine serum (FBS, Sigma, St. Louis, Mo.). • Virus infection—Human epithelial cell line, HeLa, expressing the HIV-1 receptor CD4 was propagated in Dulbecco's Modified Eagle Medium (Invitrogen, Carlsbad, Calif.) containing 10% fetal Bovine serum (FBS, Sigma, St. Louis, Mo.) and supplemented with 0.2 mg/mL Geneticin (Invitrogen, Carlsbad, Calif.). Virus-Single-round infectious reporter virus was produced by co-transfecting human embryonic Kidney 293 cells with an HIV-1 envelope DNA expression vector and a proviral cDNA containing an envelope deletion mutation and the luciferase reporter gene inserted in place of HIV-1 nef sequences (Chen et al, Ref. 41). Transfections were performed using lipofectAMINE PLUS reagent as described by the manufacturer (Invitrogen, Carlsbad, Calif.).
• 1. HeLa CD4 cells were plated in 96 well plates at a cell density of 1×10^4 cells per well in 100 μl Dulbecco's Modified Eagle Medium containing 10% fetal Bovine serum and incubated overnight. • 2. Compound was added in a 2 μl dimethylsulfoxide solution, so that the final assay concentration would be ≦10 μM. • 3. 100 μl of single-round infectious reporter virus in Dulbecco's Modified Eagle Medium was then added to the plated cells and compound at an approximate multiplicity of infection (MOI) of 0.01, resulting in a final volume of 200 μl per well. • 4. Virally-infected cells were incubated at 37 degrees Celsius, in a CO2 incubator, and harvested 72 h after infection. • 5. Viral infection was monitored by measuring luciferase expression from viral DNA in the infected cells using a luciferase reporter gene assay kit, as described by the manufacturer (Roche Molecular Biochemicals, Indianapolis, Ind.). Infected cell supernatants were removed and 50 μl of lysis buffer was added per well. After 15 minutes, 50 μl of freshly-reconstituted luciferase assay reagent was added per well. Luciferase activity was then quantified by measuring luminescence using a Wallac microbeta scintillation counter. • 6. The percent inhibition for each compound was calculated by quantifying the level of luciferase expression in cells infected in the presence of each compound as a percentage of that observed for cells infected in the absence of compound and subtracting such a determined value from 100. • 7. An EC50 provides a method for comparing the antiviral potency of the compounds of this invention. The effective concentration for fifty percent inhibition (EC50) was calculated with the Microsoft Excel Xlfit curve fitting software. For each compound, curves were generated from percent inhibition calculated at 10 different concentrations by using a four paramenter logistic model (model 205). Table 1 is the key for the data in Table 2.

| Structure (SMILES) | EC50 [nM] |
| --- | --- |
| O=C(C(=O)N1CCC(=C(c2ccccc2)c2ccccc2)CC1)c1c[nH]c2ccccc12 [Example 4] | 1000 to 5000 |
| COc1ncc(OC)c2c(C(=O)C(=O)N3CCC(=C(Cl)c4ccccc4)CC3)c[nH]c12 [Example 5] | < 1000 |
| O=C(C(=O)N1CCC(=Cc2ccccc2)CC1)c1c[nH]c2c(-c3ncon3)ccc(F)c12 [Example 6] | < 1000 |
| COc1ncc(OC)c2c(C(=O)C(=O)N3CCC(=C(C)c4ccccc4)CC3)c[nH]c12 [Example 8] | < 1000 |
| COc1ncc(OC)c2c(C(=O)C(=O)N3CCC(=C(F)c4ccccc4)CC3)c[nH]c12 [Example 9] | < 1000 |
| COc1ccnc2[nH]cc(C(=O)C(=O)N3CCC(=C(F)c4ccccc4)CC3)c12 [Example 10] | < 1000 |
| COc1ncc(OC)c2c(C(=O)C(=O)N3CCC(=C(c4ccccc4)S(C)(=O)=O)CC3)c[nH]c12 [Example 12] | 1000 to 5000 |
| COc1ncc(OC)c2c(C(=O)C(=O)N3CCC(=Cc4ccccc4)CC3)c[nH]c12 [Example 13] | > 5000 |
| CC1CN(C(=O)C(=O)c2c[nH]c3ccccc23)CC/C1=C\c1ccccc1 (stereo not drawn) [Example 14] | 1000 to 5000 |
| COc1cnc(Cl)c2[nH]cc(C(=O)C(=O)N3CCC(=C(F)c4ccccc4)CC3)c12 [Example 21] | < 1000 |
| COc1ncc(OC)c2c(C(=O)C(=O)N3CCC(=C(C#N)c4nc5ccccc5[nH]4)CC3)c[nH]c12 [Example 23] | < 1000 |
| COc1ncc(OC)c2c(C(=O)C(=O)N3CCC(=C(C(N)=O)c4ccccc4)CC3)c[nH]c12 [Example 47] | < 1000 |
| COc1cnc(Cl)c2[nH]cc(C(=O)C(=O)N3CCC(=C(C(N)=O)c4ccccc4)CC3)c12 [Example 48] | 1000 to 5000 |
| COc1ncc(OC)c2c(C(=O)C(=O)N3CCC(=C(Br)c4ccccc4)CC3)c[nH]c12 [Example 48a, 1-[4-(1-Bromo-1-phenyl-methylene)-piperidin-1-yl]-2-(4,7-dimethoxy-6-azaindol-3-yl)-ethane-1,2-dione] | < 1000 |
| COc1cnc(-c2cnccn2)c2[nH]cc(C(=O)C(=O)N3CCC(=C(C(N)=O)c4ccccc4)CC3)c12 [Example 49] | < 1000 |
| COc1ncc(OC)c2c(C(=O)C(=O)N3CCC(=C(c4ccccc4)c4nccs4)CC3)c[nH]c12 [Example 49a, 1-[4-(1-Phenyl-1-(thiazol-2-yl)-methylene)-piperidin-1-yl]-2-(4,7-dimethoxy-6-azaindol-3-yl)-ethane-1,2-dione] | < 1000 |
| COc1ncc(OC)c2c(C(=O)C(=O)N3CCC(=C(c4ccccc4)c4ccccn4)CC3)c[nH]c12 [Example 50, 1-[4-(1-Phenyl-1-(pyridin-2-yl)-methylene)-piperidin-1-yl]-2-(4,7-dimethoxy-6-azaindol-3-yl)-ethane-1,2-dione] | < 1000 |
| COc1ncc(OC)c2c(C(=O)C(=O)N3CCC(=C(c4ccccc4)c4nnco4)CC3)c[nH]c12 [Example 51, 1-[4-(1-Phenyl-1-(1,3,4-oxadiazol-2-yl)-methylene)-piperidin-1-yl]-2-(4,7-dimethoxy-6-azaindol-3-yl)-ethane-1,2-dione] | < 1000 |
| COc1ncc(OC)c2c(C(=O)C(=O)N3CCC(=C(c4ccccc4)c4nnc(C)o4)CC3)c[nH]c12 [Example 52, 1-[4-(1-Phenyl-1-(5-methyl-1,3,4-oxadiazol-2-yl)-methylene)-piperidin-1-yl]-2-(4,7-dimethoxy-6-azaindol-3-yl)-ethane-1,2-dione] | < 1000 |
| COc1ncc(OC)c2c(C(=O)C(=O)N3CCC(=C(c4ccccc4)c4nnc(C(F)(F)F)o4)CC3)c[nH]c12 [Example 53, 1-[4-(1-Phenyl-1-(5-trifluoromethyl-1,3,4-oxadiazol-2-yl)-methylene)-piperidin-1-yl]-2-(4,7-dimethoxy-6-azaindol-3-yl)-ethane-1,2-dione] | < 1000 |
| COc1ncc(OC)c2c(C(=O)C(=O)N3CCC(=C(c4ccccc4)c4ccco4)CC3)c[nH]c12 [Example 54] | < 1000 |

| Structure (SMILES) | EC50 [nM] |
| --- | --- |
| COc1ncc(OC)c2c(C(=O)C(=O)N3CCC(=C(c4ccccc4)c4cc(C)cs4)CC3)c[nH]c12 [Example 55] | < 1000 |
| COc1ncc(OC)c2c(C(=O)C(=O)N3CCC(=C(c4ccccc4)c4cnccn4)CC3)c[nH]c12 [Example 56] | < 1000 |
| COc1ncc(OC)c2c(C(=O)C(=O)N3CCC(=C(c4ccccc4)c4ccccc4)CC3)c[nH]c12 [Example 57] | < 1000 |
| COc1cccc(C(=C2CCN(C(=O)C(=O)c3c[nH]c4c(OC)ncc(OC)c34)CC2)c2ccccc2)c1 [Example 58] | < 1000 |
| COc1ncc(OC)c2c(C(=O)C(=O)N3CCC(=C(c4ccccc4)c4ccc(C#N)cc4)CC3)c[nH]c12 [Example 59] | < 1000 |
| COc1ncc(OC)c2c(C(=O)C(=O)N3CCC(=C(c4ccccc4)c4c(C)noc4C)CC3)c[nH]c12 [Example 60] | < 1000 |
| COc1ncc(OC)c2c(C(=O)C(=O)N3CCC(=C(c4ccccc4)c4ncco4)CC3)c[nH]c12 [Example 61] | < 1000 |
| COc1ccc(C(=C2CCN(C(=O)C(=O)c3c[nH]c4c(OC)ncc(OC)c34)CC2)c2ccccc2)cc1 [Example 62] | < 1000 |
| COc1ncc(OC)c2c(C(=O)C(=O)N3CCC(=C(c4ccccc4)c4ccc(SC)cc4)CC3)c[nH]c12 [Example 63] | < 1000 |
| COc1ncc(OC)c2c(C(=O)C(=O)N3CCC(=C(c4ccccc4)c4ccc(F)cc4)CC3)c[nH]c12 [Example 64] | < 1000 |
| COc1ccccc1C(=C1CCN(C(=O)C(=O)c2c[nH]c3c(OC)ncc(OC)c23)CC1)c1ccccc1 [Example 65] | < 1000 |
| COc1ncc(OC)c2c(C(=O)C(=O)N3CCC(=C(c4ccccc4)c4cccc([N+](=O)[O-])c4)CC3)c[nH]c12 [Example 66] | < 1000 |
| COc1ncc(OC)c2c(C(=O)C(=O)N3CCC(=C(c4ccccc4)c4cccc(F)c4)CC3)c[nH]c12 [Example 67] | < 1000 |
| COc1ncc(OC)c2c(C(=O)C(=O)N3CCC(=C(c4ccccc4)c4cccc(SC)c4)CC3)c[nH]c12 [Example 68] | < 1000 |
| COc1cnc(-c2cnccn2)c2[nH]cc(C(=O)C(=O)N3CCC(=C(c4ccccc4)c4cnccn4)CC3)c12 [Example 70, 1-[4-(1-Phenyl-1-(pyrazinyl)-methylene)-piperidin-1-yl]-2-(4-methoxy-7-pyrazinyl-6-azaindol-3-yl)-ethane-1,2-dione] | < 1000 |
| COc1cnc(-c2cnccn2)c2[nH]cc(C(=O)C(=O)N3CCC(=C(c4ccccc4)c4cccnc4)CC3)c12 [Example 71, 1-[4-(1-Phenyl-1-(pyridin-3-yl)-methylene)-piperidin-1-yl]-2-(4-methoxy-7-pyrazinyl-6-azaindol-3-yl)-ethane-1,2-dione] | < 1000 |
| COc1cnc(-c2cnccn2)c2[nH]cc(C(=O)C(=O)N3CCC(=C(c4ccccc4)c4nnc(C)o4)CC3)c12 [Example 72, 1-[4-(1-Phenyl-1-(5-methyl-1,3,4-oxadiazol-2-yl)-methylene)-piperidin-1-yl]-2-(4-methoxy-7-pyrazinyl-6-azaindol-3-yl)-ethane-1,2-dione] | < 1000 |
| COc1cnc(-n2ccnn2)c2[nH]cc(C(=O)C(=O)N3CCC(=C(c4ccccc4)c4nnc(C)o4)CC3)c12 [Example 73, 1-[4-(1-Phenyl-1-(5-methyl-1,3,4-oxadiazol-2-yl)-methylene)-piperidin-1-yl]-2-[4-methoxy-7-(1,2,3-triazol-1-yl)-6-azaindol-3-yl]-ethane-1,2-dione] | < 1000 |
| CCc1nnc(C(=C2CCN(C(=O)C(=O)c3c[nH]c4c(-n5ccnn5)ncc(OC)c34)CC2)c2ccccc2)o1 [Example 74, 1-[4-(1-Phenyl-1-(5-ethyl-1,3,4-oxadiazol-2-yl)-methylene)-piperidin-1-yl]-2-[4-methoxy-7-(1,2,3-triazol-1-yl)-6-azaindol-3-yl]-ethane-1,2-dione] | < 1000 |
| COc1cnc(-n2ccnn2)c2[nH]cc(C(=O)C(=O)N3CCC(=C(c4ccccc4)c4nnc(C(C)C)o4)CC3)c12 [Example 75, 1-[4-(1-Phenyl-1-(5-isopropyl-1,3,4-oxadiazol-2-yl)-methylene)-piperidin-1-yl]-2-[4-methoxy-7-(1,2,3-triazol-1-yl)-6-azaindol-3-yl]-ethane-1,2-dione] | < 1000 |
| COc1cnc(-n2ccnn2)c2[nH]cc(C(=O)C(=O)N3CCC(=C(c4ccccc4)c4nnc(C5CC5)o4)CC3)c12 [Example 76, 1-[4-(1-Phenyl-1-(5-cyclopropyl-1,3,4-oxadiazol-2-yl)-methylene)-piperidin-1-yl]-2-[4-methoxy-7-(1,2,3-triazol-1-yl)-6-azaindol-3-yl]-ethane-1,2-dione] | < 1000 |
